Results reported in patent US8158657B2, “Heterocycles substituted pyridine derivatives and antifungal agent containing thereof” (Eisai R&D Management Co., Ltd., priority 2005, dated 2012).
≈ marks a conversion by molar mass, not a printed value.

Tests used:
[1] = system: C. albicans CAF2-1 strain; assay: Anti-Candida activity, MIC measurement; format: cell-based; details: CAF21STRAIN, C. albicans CAF2-1, RPMI1640, 42-48 hours at 35° C., visual inspection, read-out: Anti-Candida Activity (minimum inhibitory concentration, MIC)
Protocol: (§1) For the C. albicans CAF2-1 strain, a fungal suspension from a standing culture for 48 hours at 30° C. in a Sabouraud dextrose liquid culture medium (SDB) was diluted with RPMI1640 medium to adjust a fungal suspension of 1.2×10^3 cells/mL. For the A. fumigatus Tsukuba strain, −80° C. stored strain was diluted with RPMI1640 medium to adjust to a fungal suspension of 4.5×10^3 cells/mL.
(§2) Using a U-bottomed 96 well plate, 8 samples/plate (A to H) of sample dilution solutions were prepared. On the 2nd to 12th rows were dispensed 10 μL of dimethyl sulfoxide solution. Weighted sample was dissolved in dimethyl sulfoxide to prepare a 2.5 mg/mL solution, 20 μL of this solution was added to the first row of the prepared plate, and 12 steps of two-fold step dilutions (10 μL of solution+10 μL of dimethyl sulfoxide solution) were performed on the plate. This sample dilution solution was dispensed in the amount of 1 μL to a flat-bottomed 96 well plate for MIC measurement to prepare a sample dilution plate.
(§3) The fungal suspension prepared in (1) was used in the amount of 99 μL/well to inoculate the flat-bottomed 96 well plate containing 1 μL/well of the test compound dilution prepared in (2), and a standing culture was carried out aerobically for 42-48 hours at 35° C.

[2] = system: A. fumigatus Tsukuba strain; assay: Anti-Aspergillus activity, MIC measurement; format: cell-based; details: RPMI1640, 42-48 hours at 35° C., visual inspection, read-out: Anti-Aspergillus Activity (minimum inhibitory concentration, MIC)
Protocol: as §1, §2, §3

| Compound | MIC [1] | MIC [2] |
| --- | --- | --- |
| Nc1ccc(-c2cc(Cc3ccc(Oc4ccccc4F)cc3)no2)c(N)n1 [Example 144, 3-(3-(4-(2-Fluoro-phenoxy)-benzyl)-isoxazol-5-yl)-pyridin-2,6-diamine] | 0.39 µg/mL (≈ 1.04 µM) | 0.2 µg/mL (≈ 0.531 µM) |
| Nc1ccc(-c2cc(Cc3ccc(OCc4ccccc4)nc3)no2)cn1 [Example 179, 5-(3-(6-Benzyloxy-pyridin-3-ylmethyl)-isoxazol-5-yl)-pyridin-2-ylamine] | 0.78 µg/mL (≈ 2.18 µM) | 0.39 µg/mL (≈ 1.09 µM) |
| Nc1ccc(-c2cc(Cc3ccc(OCc4ccc(F)cn4)cc3)no2)cn1 [Example 184, 5-(3-(4-(5-Fluoro-pyridin-2-ylmethoxy)-benzyl)-isoxazol-5-yl)-pyridin-2-ylamine] | > 25 µg/mL | 0.39 µg/mL (≈ 1.04 µM) |
| Nc1ccc(-c2cc(Cc3ccc(Sc4ccccc4)nc3)no2)c(N)n1 [Example 161, 3-(3-(6-Phenylsulfanyl-pyridin-3-ylmethyl)-isoxazol-5-yl)-pyridin-2,6-diamine] | 0.39 µg/mL (≈ 1.04 µM) | 0.39 µg/mL (≈ 1.04 µM) |
| Nc1ncccc1-c1cnn(Cc2ccc(COCC3CC3)cc2)c1 [Example 195, 3-(1-(4-Cyclopropylmethoxymethyl-benzyl)-1H-pyrazol-4-yl)-pyridin-2-ylamine] | 0.39 µg/mL (≈ 1.17 µM) | 0.78 µg/mL (≈ 2.33 µM) |
| Nc1ccc(-c2cc(Cc3ccc(Nc4ccccc4)cc3)no2)c(N)n1 [Example 129, 3-(3-(4-Phenylamino-benzyl)-isoxazol-5-yl)-pyridin-2,6-diamine] | 0.2 µg/mL (≈ 0.56 µM) | 0.2 µg/mL (≈ 0.56 µM) |
| Cc1cc(COc2ccc(Cc3cc(-c4cccnc4N)on3)cc2)ccn1 [Example 47, 3-(3-(4-(2-Methyl-pyridin-4-ylmethoxy)-benzyl)-isoxazol-5-yl)-pyridin-2-ylamine] | 0.2 µg/mL (≈ 0.537 µM) | 0.39 µg/mL (≈ 1.05 µM) |
| Nc1ccc(-c2cc(Cc3cccc(OCc4ccccn4)c3)no2)c(N)n1 [Example 118, 3-(3-(3-(Pyridin-2-ylmethoxy)-benzyl)-isoxazol-5-yl)-pyridin-2,6-diamine] | 0.78 µg/mL (≈ 2.09 µM) | 3.13 µg/mL (≈ 8.38 µM) |
| CCOCc1ccc(Cn2cc(-c3cccnc3N)cn2)cc1 [Example 196, 3-(1-(4-Ethoxymethyl-benzyl)-1H-pyrazol-4-yl)-pyridin-2-ylamine] | 6.25 µg/mL (≈ 20.3 µM) | 6.25 µg/mL (≈ 20.3 µM) |
| Nc1ccc(-c2cc(Cc3ccc(CSc4ccccc4)cc3)no2)c(N)n1 [Example 217, 3-(3-(4-Phenylsulfanylmethyl-benzyl)-isoxazol-5-yl)-pyridin-2,6-diamine] | 0.1 µg/mL (≈ 0.257 µM) | 0.2 µg/mL (≈ 0.515 µM) |
| Nc1ccc(-c2cc(Cc3ccc(OCc4ccncc4)cc3)no2)cn1 [Example 180] | 0.39 µg/mL (≈ 1.09 µM) | 1.56 µg/mL (≈ 4.35 µM) |
| Nc1nc(NCCO)ccc1-c1cc(Cc2ccc(OCc3ccccc3)nc2)no1 [Example 225, 2-(6-Amino-5-(3-(6-benzyloxy-pyridin-3-ylmethyl)-isoxazol-5-yl)-pyridin-2-ylamino)-ethanol] | 0.78 µg/mL (≈ 1.87 µM) | 3.13 µg/mL (≈ 7.5 µM) |
| Nc1ncccc1-c1cc(Cc2ccc(Oc3cccc(F)c3)cc2)no1 [Example 81, 3-(3-(4-(3-Fluoro-phenoxy)-benzyl)-isoxazol-5-yl)-pyridin-2-ylamine] | 0.2 µg/mL (≈ 0.553 µM) | 0.39 µg/mL (≈ 1.08 µM) |
| Nc1ccc(-c2cc(Cc3ccc(OC4CCCC4)cc3)no2)c(N)n1 [Example 137, 3-(3-(4-Cyclopentyloxy-benzyl)-isoxazol-5-yl)-pyridin-2,6-diamine] | 0.78 µg/mL (≈ 2.23 µM) | 1.56 µg/mL (≈ 4.45 µM) |
| Cc1nc(N)ccc1-c1cc(Cc2ccc(COc3ccccn3)cc2)no1 [Example 187] | 1.56 µg/mL (≈ 4.19 µM) | 0.78 µg/mL (≈ 2.09 µM) |
| Nc1ncc(F)cc1-c1cc(Cc2ccc(OCc3ccccc3)cc2)no1 [Example 173, 3-(3-(4-Benzyloxy-benzyl)-isoxazol-5-yl)-5-fluoro-pyridin-2-ylamine] | 1.56 µg/mL (≈ 4.16 µM) | 0.78 µg/mL (≈ 2.08 µM) |

| Compound | MIC [1] | MIC [2] |
| --- | --- | --- |
| Nc1ccc(-c2cc(Cc3ccc(SCc4ccccc4)cc3)no2)c(N)n1 [Example 216, 3-(3-(4-Benzylsulfanyl-benzyl)-isoxazol-5-yl)-pyridin-2,6-diamine] | 0.39 µg/mL (≈ 1 µM) | 0.39 µg/mL (≈ 1 µM) |
| Nc1ccc(-c2cc(Cc3ccc(Oc4cccnc4)nc3)no2)c(N)n1 [Example 164, 3-(3-(6-(Pyridin-3-yloxy)-pyridin-3-ylmethyl)-isoxazol-5-yl)-pyridin-2,6-diamine] | 6.25 µg/mL (≈ 17.3 µM) | 6.25 µg/mL (≈ 17.3 µM) |
| Nc1ccc(-c2cc(Cc3ccc(OCC4CC4)cc3)no2)c(N)n1 [Example 21, 3-(3-(4-Cyclopropylmethoxy-benzyl)-isoxazol-5-yl)-pyridin-2,6-diamine] | 1.56 µg/mL (≈ 4.64 µM) | 0.78 µg/mL (≈ 2.32 µM) |
| Cc1ccc(Cc2ccc(Cc3cc(-c4cccnc4N)on3)cc2)o1 [Example 46, 3-(3-(4-(5-Methyl-furan-2-ylmethyl)-benzyl)-isoxazol-5-yl)-pyridin-2-ylamine] | 0.05 µg/mL (≈ 0.145 µM) | 0.2 µg/mL (≈ 0.579 µM) |
| Nc1ccc(-c2cc(Cc3ccc(COc4ncccc4F)cc3)no2)c(N)n1 [Example 149, 3-(3-(4-(3-Fluoro-pyridin-2-yloxymethyl)-benzyl)-isoxazol-5-yl)-pyridin-2,6-diamine] | 6.25 µg/mL (≈ 16 µM) | 1.56 µg/mL (≈ 3.99 µM) |
| COC(=O)c1cccc(COc2ccc(Cc3cc(-c4ccc(N)nc4N)on3)cc2)c1 [Example 213, 3-(4-(5-(2,6-Diamino-pyridin-3-yl)-isoxazol-3-ylmethyl)-phenoxymethyl)benzoic acid methyl ester] | 6.25 µg/mL (≈ 14.5 µM) | 1.56 µg/mL (≈ 3.62 µM) |
| Nc1ccc(-c2cc(Cc3ccc(Oc4cccnc4)cc3)no2)c(N)n1 [Example 138, 3-(3-(4-(Pyridin-3-yloxy)-benzyl)-isoxazol-5-yl)-pyridin-2,6-diamine] | 0.78 µg/mL (≈ 2.17 µM) | 0.78 µg/mL (≈ 2.17 µM) |
| Nc1ccc(-c2cnn(Cc3ccc(OCc4ccccc4)nc3)c2)c(N)n1 [Example 198, 3-(1-(6-Benzyloxy-pyridin-3-ylmethyl)-1H-pyrazol-4-yl)-pyridin-2,6-diamine] | 0.78 µg/mL (≈ 2.09 µM) | 1.56 µg/mL (≈ 4.19 µM) |
| Nc1ccc(-c2cc(Cc3cncc(Oc4ccccc4)c3)no2)c(N)n1 [Example 145, 3-(3-(5-Phenoxy-pyridin-3-ylmethyl)-isoxazol-5-yl)-pyridin-2,6-diamine] | 6.25 µg/mL (≈ 17.4 µM) | 12.5 µg/mL (≈ 34.8 µM) |
| COCc1ccc(-c2cc(Cc3ccc(Cc4ccc(Cl)o4)cc3)no2)c(N)n1 [Example 168, 3-(3-(4-(5-Chloro-furan-2-ylmethyl)-benzyl)-isoxazol-5-yl)-6-methoxymethyl-pyridin-2-ylamine] | 0.78 µg/mL (≈ 1.9 µM) | 0.78 µg/mL (≈ 1.9 µM) |
| Nc1ncccc1-c1cnn(Cc2ccc(Oc3ccccc3)nc2)c1 [Example 193, 3-(1-(6-Phenoxy-pyridin-3-ylmethyl)-1H-pyrazol-4-yl)-pyridin-2-ylamine] | 0.78 µg/mL (≈ 2.27 µM) | 0.78 µg/mL (≈ 2.27 µM) |
| Nc1ccc(-c2cc(Cc3ccc(Oc4ccc(F)cc4)nc3)no2)cn1 [Example 186, 5-(3-(6-(4-Fluoro-phenoxy)-pyridin-3-ylmethyl)-isoxazol-5-yl)-pyridin-2-ylamine] | 3.13 µg/mL (≈ 8.64 µM) | 0.78 µg/mL (≈ 2.15 µM) |
| Nc1ccc(-c2cc(Cc3ccc(OC4CCCCC4)cc3)no2)c(N)n1 [Example 139, 3-(3-(4-Cyclohexyloxy-benzyl)-isoxazol-5-yl)-pyridin-2,6-diamine] | 1.56 µg/mL (≈ 4.28 µM) | > 25 µg/mL |
| Nc1ncccc1-c1cc(Cc2ccc(SCc3ccccc3)cc2)no1 [Example 205, 3-(3-(4-Benzylsulfanyl-benzyl)-isoxazol-5-yl)-pyridin-2-ylamine] | 0.39 µg/mL (≈ 1.04 µM) | 0.78 µg/mL (≈ 2.09 µM) |
| Nc1ncccc1-c1cc(Cc2ccc(Nc3ccccc3)cc2)no1 [Example 69, 3-(3-(4-Phenylamino-benzyl)-isoxazol-5-yl)-pyridin-2-ylamine] | 0.1 µg/mL (≈ 0.292 µM) | 0.2 µg/mL (≈ 0.584 µM) |
